Like-named read-outs stand apart in the source and are kept apart here.
How the values were obtained:
B-16 melanoma cells = assay: Evaluation of melanin production-inhibitory function (degree of whiteness of cultured cells); assay type: cell-based; on Evaluation of Melanin Production-Inhibition (degree of whiteness of cells): key: ++: The degree of whiteness is higher than that observed for the positive control; +: The degree of whiteness is almost identical to that of the positive control; ±: The degree of whiteness is not higher than that observed for the positive control, but higher than that observed for control; −: The degree of whiteness is almost identical to that observed for the control
From the text: The melanin production-inhibitory function of the 5-membered ring-containing triterpenes incorporated into the foods or beverages and orally administered whitening agents of the present invention can be determined by a test method, which makes use of cultured melanocytes. The term “melanocyte(s)” used herein means cells having an ability of producing melanin and when cultivating these cells in the usual manner, the cells are blackened due to the accumulation of melanin pigment thus produced. Contrary to this, if a substance having such a melanin production-inhibitory function is incorporated into this cultivation system, the melanin production is suppressed and the skin is relatively whitened. The melanin production-inhibitory function can likewise be evaluated on the basis of this degree of relative whitening.
A culture medium (2 mL/well) was dispensed to a 6-well plate, a predetermined amount of B-16 melanoma cells was inoculated into the culture medium in each well and the cells were cultured at 37° C. and 5% CO2 by allowing the culture medium to stand. On the next day, a solution of test sample (each 5-membered ring-containing triterpene to be evaluated) having a predetermined concentration was added to and mixed with the culture medium and the cultivation was continued. On the 5th day from the initiation of the cultivation, the culture medium was exchanged and the test sample solution was again added to each well. On the next day, the culture medium was removed from each well to thus recover the cells, followed by washing the cells with PBS (phosphate-buffered physiological saline) and evaluation of the desired function based on the degree of whiteness of the cells. In this connection, the melanin production-inhibitory effect was evaluated by comparing the resulting degree of whiteness with that observed when 450 ppm of vitamin C-magnesium phosphate having a known effect was added instead of the test sample solution (positive control) and that observed when any test sample was not added (control) according to the following criteria.
The evaluation criteria for the degree of whiteness of cells are as follows: […]

[1] = tested on: deposition of melanin pigment on the skin induced by the UV light irradiation; assay: Animal test for the confirmation of whitening effect (UV-induced skin pigmentation, test feed); assay type: in vivo, Brown guinea pigs; details: free ingestion, 4 weeks; for Evaluation Results CI: number of 7 animals ranked Conspicuous Imp.; for Evaluation Results MI: number of 7 animals ranked Medium Imp.; for Evaluation Results NC: number of 7 animals ranked No Change; for Evaluation Results SI: number of 7 animals ranked Slight Imp.
From the text: More specifically, the whitening effect can be evaluated by removing a half of the hair on the back of each brown guinea pig, keeping these animals over 2 weeks while irradiating the hair-removed area with a UV lamp, dividing these guinea pigs into groups in such a manner that there is not any difference in the degree of the melanin pigmentation induced by the UN light irradiation, allowing the animals in each group to freely take a test food comprising a feed having a low vitamin C content to which a variety of triterpenes have been added and keeping these animals over additional 4 weeks to evaluate the degree of skin pigmentation while comparing the same with those observed for a control group and for a positive control group.
Brown guinea pigs (5-week-old male animals) were preliminarily kept for one week using a commercially available feed (CG-7 available from Nippon Kurea Company), a half of the hair on the back was removed and the hair-removed portion on the back was irradiated with light rays emitted from a UV lamp of 1.2 mW for 5 minutes on the 1st day and then with light rays emitted from a UV lamp of 1.0 mW for 5 minutes on the 2nd and 3rd days. Subsequently, these animals were kept over 2 weeks using a feed having a low vitamin C content (200.0 mg/kg feed), these guinea pigs were divided into 12 groups (comprising 7 animals each) in such a manner that there was not observed any difference in the degree of deposition of melanin pigment on the skin induced by the UV light irradiation between groups and then the animals were allowed to freely ingest each test feed comprising the feed having a low vitamin C content to which each triterpene had been added in an amount specified in the following Table 2. In this respect, however, the vitamin C-deficient feed per se was supplied to the control group and a vitamin C-supplemented feed was supplied to the positive control group. After 4 weeks from the supply of the test feed, the degree of the pigmentation of the skin was evaluated according to the following criteria.

[2] = Concentration 2 ppm, rank vs 450 ppm vitamin C-magnesium phosphate
[3] = Concentration 4 ppm, rank vs 450 ppm vitamin C-magnesium phosphate
[4] = Concentration 6 ppm, rank vs 450 ppm vitamin C-magnesium phosphate
[5] = Concentration 8 ppm, rank vs 450 ppm vitamin C-magnesium phosphate
[6] = Concentration 10 ppm, rank vs 450 ppm vitamin C-magnesium phosphate
[7] = compared with 450 ppm of vitamin C-magnesium phosphate

CC(=O)O[C@@H]1C[C@]2(C)[C@H]3CC=C4[C@@H]5CC(C)(C)CC[C@]5(C(=O)O)CC[C@@]4(C)[C@]3(C)CC[C@H]2C(C)(C)[C@H]1OC(C)=O [Compound of Synthetic Example 2, 2,3-O-di-Acetyl-Maslinic Acid]
Evaluation of Melanin Production-Inhibition (degree of whiteness of cells) (B-16 melanoma cells; [2]): ± | Evaluation of Melanin Production-Inhibition (degree of whiteness of cells) (B-16 melanoma cells; [3]): ± | Evaluation of Melanin Production-Inhibition (degree of whiteness of cells) (B-16 melanoma cells; [4]): + | Evaluation of Melanin Production-Inhibition (degree of whiteness of cells) (B-16 melanoma cells; [5]): ++ | Evaluation of Melanin Production-Inhibition (degree of whiteness of cells) (B-16 melanoma cells; [6]): ++ | Evaluation of Melanin Production-Inhibition (degree of whiteness of cells) (B-16 melanoma cells; Concentration 15 ppm, rank vs 450 ppm vitamin C-magnesium phosphate): ++ | melanin production-inhibitory function relative to that observed for the positive control/standard (B-16 melanoma cells; [7]): about 75 times | Evaluation Results CI ([1]; 500.0 mg/kg feed): 2 | Evaluation Results MI ([1]; 500.0 mg/kg feed): 4 | Evaluation Results NC ([1]; 500.0 mg/kg feed): 0 | Evaluation Results SI ([1]; 500.0 mg/kg feed): 1

CC1(C)CC[C@]2(CO)CC[C@]3(C)C(=CC[C@@H]4[C@@]5(C)CC[C@H](O)C(C)(C)[C@@H]5CC[C@]43C)[C@@H]2C1 [Erythrodiol]
Evaluation of Melanin Production-Inhibition (degree of whiteness of cells) (B-16 melanoma cells; [2]): ± | Evaluation of Melanin Production-Inhibition (degree of whiteness of cells) (B-16 melanoma cells; [4]): ± | Evaluation of Melanin Production-Inhibition (degree of whiteness of cells) (B-16 melanoma cells; [6]): ± | Evaluation of Melanin Production-Inhibition (degree of whiteness of cells) (B-16 melanoma cells; Concentration 25 ppm, rank vs 450 ppm vitamin C-magnesium phosphate): + | Evaluation of Melanin Production-Inhibition (degree of whiteness of cells) (B-16 melanoma cells; Concentration 50 ppm, rank vs 450 ppm vitamin C-magnesium phosphate): + | melanin production-inhibitory function relative to that observed for the positive control/standard (B-16 melanoma cells; [7]): about 20 times | Evaluation Results CI ([1]; 500.0 mg/kg feed): 2 | Evaluation Results MI ([1]; 500.0 mg/kg feed): 2 | Evaluation Results NC ([1]; 500.0 mg/kg feed): 1 | Evaluation Results SI ([1]; 500.0 mg/kg feed): 2

CC1(C)CC[C@]2(C(=O)O)CC[C@]3(C)C(=CC[C@@H]4[C@@]5(C)C[C@@H](O)[C@H](O)C(C)(C)[C@@H]5CC[C@]43C)[C@@H]2C1 [Purified maslinic acid 1, maslinic acid]
Evaluation of Melanin Production-Inhibition (degree of whiteness of cells) (B-16 melanoma cells): ± and + and ++ | concentration at which the function is identical to that observed for 450 ppm of the positive control (B-16 melanoma cells): 4 ppm | melanin production-inhibitory function relative to that observed for the positive control/standard (B-16 melanoma cells): about 110 times | Evaluation Results CI ([1]; 250.0 mg/kg feed): 2 | Evaluation Results CI ([1]; 500.0 mg/kg feed, 500 mg/kg): 4 | Evaluation Results MI ([1]; 250.0 mg/kg feed): 3 | Evaluation Results MI ([1]; 500.0 mg/kg feed): 3 | Evaluation Results NC ([1]; 250.0 mg/kg feed): 0 | Evaluation Results NC ([1]; 500.0 mg/kg feed): 0 | Evaluation Results SI ([1]; 250.0 mg/kg feed): 2 | Evaluation Results SI ([1]; 500.0 mg/kg feed, 500 mg/kg): 0

CC1(C)CC[C@]2(C(=O)O)CC[C@]3(C)C(=CC[C@@H]4[C@@]5(C)C[C@@H](O)[C@H](O)C(C)(C)[C@@H]5CC[C@]43C)[C@@H]2C1 [Purified maslinic acid 2, maslinic acid]
Evaluation of Melanin Production-Inhibition (degree of whiteness of cells) (B-16 melanoma cells): ± and + and ++ | melanin production-inhibitory function relative to that observed for the positive control/standard (B-16 melanoma cells): about 110 times | Evaluation Results CI ([1]; 500.0 mg/kg feed, 500 mg/kg): 3 | Evaluation Results MI ([1]; 500.0 mg/kg feed): 3 | Evaluation Results NC ([1]; 500.0 mg/kg feed): 0 | Evaluation Results SI ([1]; 500.0 mg/kg feed, 500 mg/kg): 1

C[C@H]1[C@H](C)CC[C@]2(C(=O)O)CC[C@]3(C)C(=CC[C@@H]4[C@@]5(C)CC[C@H](O)C(C)(C)[C@@H]5CC[C@]43C)[C@H]12 [Ursolic acid]
Evaluation of Melanin Production-Inhibition (degree of whiteness of cells) (B-16 melanoma cells; [2]): ± | Evaluation of Melanin Production-Inhibition (degree of whiteness of cells) (B-16 melanoma cells; [3]): + | Evaluation of Melanin Production-Inhibition (degree of whiteness of cells) (B-16 melanoma cells; [4]): ++ | Evaluation of Melanin Production-Inhibition (degree of whiteness of cells) (B-16 melanoma cells; [5]): ++ | Evaluation of Melanin Production-Inhibition (degree of whiteness of cells) (B-16 melanoma cells; [6]): ++ | melanin production-inhibitory function relative to that observed for the positive control/standard (B-16 melanoma cells; [7]): about 110 times | Evaluation Results CI ([1]; 500.0 mg/kg feed): 4 | Evaluation Results MI ([1]; 500.0 mg/kg feed): 2 | Evaluation Results NC ([1]; 500.0 mg/kg feed): 0 | Evaluation Results SI ([1]; 500.0 mg/kg feed): 1

C[C@H]1[C@H](C)CC[C@]2(CO)CC[C@]3(C)C(=CC[C@@H]4[C@@]5(C)CC[C@H](O)C(C)(C)[C@@H]5CC[C@]43C)[C@H]12 [Uvaol]
Evaluation of Melanin Production-Inhibition (degree of whiteness of cells) (B-16 melanoma cells; [2]): − | Evaluation of Melanin Production-Inhibition (degree of whiteness of cells) (B-16 melanoma cells; [4]): − | Evaluation of Melanin Production-Inhibition (degree of whiteness of cells) (B-16 melanoma cells; [6]): + | melanin production-inhibitory function relative to that observed for the positive control/standard (B-16 melanoma cells; [7]): about 40 times | Evaluation Results CI ([1]; 500.0 mg/kg feed): 1 | Evaluation Results MI ([1]; 500.0 mg/kg feed): 4 | Evaluation Results NC ([1]; 500.0 mg/kg feed): 1 | Evaluation Results SI ([1]; 500.0 mg/kg feed): 1
